{
  "source": "paper PMC12892976",
  "about": "“Alkylation-based optimization of antifungal FPPS inhibitors yields a potent, broad-spectrum lipophilic zoledronate derivative” (mBio, 2025)",
  "assay_in_all_cases": "squalene rescue assay",
  "type_in_all_cases": "cell-based",
  "key": {"A. fumigatus ATCC 204305": {"system": "A. fumigatus ATCC 204305", "conditions": "Aspergillus fumigatus, ATCC204305, read-out: EC50 (squalene concentration rescuing 50% of growth)", "procedure": "(§1) Squalene rescue assays were performed as described previously ([7]). […] After incubation at 35°C for 24 h (C. albicans), 48 h (A. fumigatus), or 72 h (C. neoformans), OD600 was measured in a BioTek ELx800 plate reader."}, "C. albicans SC5314": {"system": "C. albicans SC5314", "conditions": "Candida albicans, SC5314, read-out: EC50 (squalene concentration rescuing 50% of growth)", "procedure": "as §1"}, "C. neoformans H99": {"system": "C. neoformans H99", "conditions": "Cryptococcus neoformans, H99, read-out: EC50 (squalene concentration rescuing 50% of growth)", "procedure": "as §1"}},
  "data": [
    {"compound": "CC(C)=CCC/C(C)=C/CC/C(C)=C/CC/C=C(\\C)CC/C=C(\\C)CCC=C(C)C", "note": "[squalene]", "values": [
      {"measurement": "EC50", "setting": "A. fumigatus ATCC 204305", "result": 23.3, "unit": "µg/mL"},
      {"measurement": "EC50", "setting": "C. albicans SC5314", "result": 12.4, "unit": "µg/mL"},
      {"measurement": "EC50", "setting": "C. neoformans H99", "result": 2.98, "unit": "µg/mL"}
    ]}
  ]
}
